Where two headings read alike, the source gives them in different places. Positions of bridges follow the written chain, without caps; N, C: chain ends. Non-standard residues stand in square brackets, D forms with d. Residues, ends and D or L forms follow the SMILES beside them. Arg(Me2s) = CN=C(NC)NCCC[C@H](N)C(=O)O; Phe(4-I) = N[C@@H](Cc1ccc(I)cc1)C(=O)O; Gly(octyl) = CCCCCCCC[C@H](N)C(=O)O; NMeF = CN[C@@H](Cc1ccccc1)C(=O)O
Legend:
Experiment in all cases: cell-based
hNav1.3 = hNav1.3 (Homo sapiens, UniProt Q9NY46); conditions: IonWorks Quattro, read-out: IWQ Use Nav1.3
hNav1.7 = hNav1.7 (Homo sapiens, UniProt Q15858); type: cell-based; conditions: IonWorks Quattro, read-out: IWQ Use Nav1.7
Chain of hNav1.7 (Q15858 whole entry, looked up): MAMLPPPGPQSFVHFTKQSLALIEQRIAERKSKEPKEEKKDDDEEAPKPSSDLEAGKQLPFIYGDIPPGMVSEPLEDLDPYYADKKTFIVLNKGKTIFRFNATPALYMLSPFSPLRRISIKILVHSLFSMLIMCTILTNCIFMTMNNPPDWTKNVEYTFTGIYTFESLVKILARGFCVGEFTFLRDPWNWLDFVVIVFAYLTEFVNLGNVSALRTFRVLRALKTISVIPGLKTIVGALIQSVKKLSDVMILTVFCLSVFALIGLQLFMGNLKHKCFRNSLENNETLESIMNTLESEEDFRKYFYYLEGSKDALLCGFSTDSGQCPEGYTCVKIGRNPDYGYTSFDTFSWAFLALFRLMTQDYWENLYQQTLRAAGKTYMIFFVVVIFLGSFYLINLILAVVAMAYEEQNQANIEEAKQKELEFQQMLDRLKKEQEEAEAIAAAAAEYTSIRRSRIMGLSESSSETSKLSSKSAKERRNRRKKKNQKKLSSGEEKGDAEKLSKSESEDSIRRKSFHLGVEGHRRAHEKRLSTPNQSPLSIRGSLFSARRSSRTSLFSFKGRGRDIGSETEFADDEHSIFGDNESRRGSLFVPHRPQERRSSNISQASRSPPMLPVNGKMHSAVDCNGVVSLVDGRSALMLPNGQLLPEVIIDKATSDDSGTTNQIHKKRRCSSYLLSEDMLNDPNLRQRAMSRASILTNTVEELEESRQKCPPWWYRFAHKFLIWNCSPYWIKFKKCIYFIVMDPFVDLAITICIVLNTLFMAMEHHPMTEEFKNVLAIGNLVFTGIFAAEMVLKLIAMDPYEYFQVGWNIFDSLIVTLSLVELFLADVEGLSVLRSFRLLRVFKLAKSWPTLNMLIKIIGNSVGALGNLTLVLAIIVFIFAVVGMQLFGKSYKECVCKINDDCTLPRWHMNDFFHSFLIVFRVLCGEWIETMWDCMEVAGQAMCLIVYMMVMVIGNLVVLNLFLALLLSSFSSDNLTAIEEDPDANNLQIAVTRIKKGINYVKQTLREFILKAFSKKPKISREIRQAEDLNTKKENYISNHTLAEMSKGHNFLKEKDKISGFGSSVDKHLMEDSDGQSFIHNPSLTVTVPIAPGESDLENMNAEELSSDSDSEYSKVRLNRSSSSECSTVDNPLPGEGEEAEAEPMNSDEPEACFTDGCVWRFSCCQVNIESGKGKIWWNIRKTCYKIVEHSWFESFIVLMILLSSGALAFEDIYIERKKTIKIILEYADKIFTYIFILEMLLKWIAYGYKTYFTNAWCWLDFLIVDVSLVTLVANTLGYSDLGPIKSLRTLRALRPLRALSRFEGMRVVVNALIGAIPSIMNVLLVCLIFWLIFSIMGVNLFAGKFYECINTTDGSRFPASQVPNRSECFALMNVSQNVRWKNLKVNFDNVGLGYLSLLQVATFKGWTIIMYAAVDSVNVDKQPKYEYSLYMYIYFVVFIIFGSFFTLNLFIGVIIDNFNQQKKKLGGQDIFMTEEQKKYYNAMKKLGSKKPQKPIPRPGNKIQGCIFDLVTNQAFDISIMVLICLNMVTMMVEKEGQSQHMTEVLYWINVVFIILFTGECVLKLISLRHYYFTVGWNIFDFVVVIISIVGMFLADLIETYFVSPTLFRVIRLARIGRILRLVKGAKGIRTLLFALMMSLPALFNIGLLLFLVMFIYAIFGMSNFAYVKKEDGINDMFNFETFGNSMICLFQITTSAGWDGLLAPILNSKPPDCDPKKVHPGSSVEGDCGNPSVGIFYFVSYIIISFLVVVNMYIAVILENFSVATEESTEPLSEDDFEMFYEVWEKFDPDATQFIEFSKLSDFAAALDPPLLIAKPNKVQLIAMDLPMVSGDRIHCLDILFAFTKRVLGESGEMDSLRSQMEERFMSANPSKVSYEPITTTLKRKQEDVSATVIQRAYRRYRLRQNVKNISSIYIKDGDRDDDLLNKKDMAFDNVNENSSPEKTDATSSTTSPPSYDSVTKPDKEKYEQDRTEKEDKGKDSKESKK

hNav1.5 = hNav1.5 (Homo sapiens, UniProt Q14524); conditions: IonWorks Quattro, read-out: IWQ Use Nav1.5
Chain of hNav1.5 (Q14524 whole entry, looked up): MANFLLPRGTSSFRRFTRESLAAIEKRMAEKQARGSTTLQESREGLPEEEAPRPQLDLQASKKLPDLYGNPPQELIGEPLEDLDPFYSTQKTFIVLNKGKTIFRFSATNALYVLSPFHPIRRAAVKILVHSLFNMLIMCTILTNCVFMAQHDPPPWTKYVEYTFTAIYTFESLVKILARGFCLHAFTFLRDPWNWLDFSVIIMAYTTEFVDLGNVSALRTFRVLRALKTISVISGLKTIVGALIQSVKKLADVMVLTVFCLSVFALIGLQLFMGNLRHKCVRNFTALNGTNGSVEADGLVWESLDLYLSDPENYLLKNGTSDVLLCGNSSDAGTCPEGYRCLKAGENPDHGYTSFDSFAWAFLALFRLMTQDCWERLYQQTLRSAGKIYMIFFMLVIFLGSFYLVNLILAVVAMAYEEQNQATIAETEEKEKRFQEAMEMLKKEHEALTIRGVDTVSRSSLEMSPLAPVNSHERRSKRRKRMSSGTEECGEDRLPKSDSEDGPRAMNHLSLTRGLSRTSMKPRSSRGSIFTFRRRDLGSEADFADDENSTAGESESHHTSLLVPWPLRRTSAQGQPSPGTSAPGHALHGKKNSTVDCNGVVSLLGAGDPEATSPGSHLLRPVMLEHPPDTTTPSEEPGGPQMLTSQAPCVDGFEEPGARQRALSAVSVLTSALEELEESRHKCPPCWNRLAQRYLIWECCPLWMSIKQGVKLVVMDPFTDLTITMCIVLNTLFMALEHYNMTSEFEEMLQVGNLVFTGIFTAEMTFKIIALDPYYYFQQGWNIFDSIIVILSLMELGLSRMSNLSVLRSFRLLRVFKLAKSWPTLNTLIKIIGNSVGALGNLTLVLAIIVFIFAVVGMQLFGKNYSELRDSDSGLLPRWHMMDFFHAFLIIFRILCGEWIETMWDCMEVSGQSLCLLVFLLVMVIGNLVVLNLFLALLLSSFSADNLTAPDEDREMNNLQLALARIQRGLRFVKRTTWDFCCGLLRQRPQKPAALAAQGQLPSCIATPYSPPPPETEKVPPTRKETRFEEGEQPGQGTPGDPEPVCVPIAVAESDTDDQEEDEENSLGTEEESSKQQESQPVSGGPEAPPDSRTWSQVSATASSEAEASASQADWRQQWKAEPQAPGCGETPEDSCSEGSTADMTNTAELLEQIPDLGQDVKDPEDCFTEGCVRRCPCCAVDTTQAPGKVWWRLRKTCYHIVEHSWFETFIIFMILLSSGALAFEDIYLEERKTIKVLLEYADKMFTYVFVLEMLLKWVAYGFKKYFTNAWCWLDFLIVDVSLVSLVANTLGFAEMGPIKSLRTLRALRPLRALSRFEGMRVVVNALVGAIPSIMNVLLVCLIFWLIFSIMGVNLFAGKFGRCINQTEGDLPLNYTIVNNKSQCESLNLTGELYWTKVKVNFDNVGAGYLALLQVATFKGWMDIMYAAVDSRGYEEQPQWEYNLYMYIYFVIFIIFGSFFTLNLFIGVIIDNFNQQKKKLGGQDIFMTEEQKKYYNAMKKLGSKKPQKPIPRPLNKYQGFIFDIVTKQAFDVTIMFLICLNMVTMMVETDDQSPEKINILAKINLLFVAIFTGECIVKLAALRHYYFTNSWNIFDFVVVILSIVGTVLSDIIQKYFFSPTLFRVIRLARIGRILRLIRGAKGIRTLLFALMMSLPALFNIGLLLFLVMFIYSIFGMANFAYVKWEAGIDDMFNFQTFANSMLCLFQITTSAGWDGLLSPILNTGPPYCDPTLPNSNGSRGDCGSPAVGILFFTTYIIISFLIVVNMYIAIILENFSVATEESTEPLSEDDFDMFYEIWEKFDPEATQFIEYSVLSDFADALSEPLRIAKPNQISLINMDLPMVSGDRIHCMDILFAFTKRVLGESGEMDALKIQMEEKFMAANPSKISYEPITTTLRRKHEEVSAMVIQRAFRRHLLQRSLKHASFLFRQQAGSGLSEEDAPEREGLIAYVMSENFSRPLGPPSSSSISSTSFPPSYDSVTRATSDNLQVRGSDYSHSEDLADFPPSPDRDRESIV

[1] = clamped to −110 mV, depolarized to −10 mV, 5 min after compound, n=2

**Q.** For `CC[C@H](C)[C@@H]1NC(=O)[C@@H]2CSSC[C@@H]3NC(=O)[C@H](C(C)C)NC(=O)[C@H](CC(C)C)NC(=O)[C@H](CC(N)=O)NC(=O)[C@@H]4CCCN4C(=O)[C@H](CCCNC(=N)N)NC(=O)[C@H](CSSC[C@H](NC(=O)[C@@H](N)CC(=O)O)C(=O)N[C@@H](CC(C)C)C(=O)NCC(=O)N[C@@H](Cc4ccccc4)C(=O)N[C@@H](CCSC)C(=O)N[C@@H](CCCNC(=N)N)C(=O)N[C@@H](CCCCN)C(=O)N2)NC(=O)[C@H](CSSC[C@@H](C(=O)N[C@@H](CCCCN)C(=O)N[C@@H](Cc2ccc(O)cc2)C(=O)N[C@@H](Cc2ccc(I)cc2)C(=O)N[C@@H](Cc2ccccc2)C(N)=O)NC(=O)[C@H](Cc2c[nH]c4ccccc24)NC(=O)[C@H](CCCCN)NC(=O)[C@H](Cc2c[nH]cn2)NC(=O)[C@H]([C@@H](C)O)NC(=O)[C@H](CCCNC(=N)N)NC(=O)[C@H](CO)NC3=O)NC(=O)[C@H](CCCCN)NC(=O)[C@H](CC(=O)O)NC(=O)[C@H](CC(N)=O)NC(=O)[C@H](CC(=O)O)NC(=O)[C@@H]2CCCN2C1=O` [compound 249] (H-DCLGFMRKCIPDNDKCCRPNLVCSRTHKWCKY[Phe(4-I)]F-NH2; disulfide 2-17, 9-23, 16-30), which IC50 (hNav1.3; Table 26, use, […]) is on record?
**A.** Its IC50 is 0.06 µM.

**Q.** What about the IC50 (hNav1.7; Table 26, use, […]) of the same molecule?
**A.** The IC50 was 0.09 µM.

**Q.** And the IC50 (hNav1.5; Table 26, use, […])?
**A.** The IC50 was 7.78 µM.

**Q.** How did the IC50 (hNav1.3; use-dependent block, hNav1.3) turn out when `CCCCCCCC[C@@H]1NC(=O)CNC(=O)[C@H](CC(C)C)NC(=O)[C@@H](NC(=O)[C@@H](N)CC(=O)O)CSSC[C@@H]2NC(=O)[C@@H]3CSSC[C@@H](C(=O)N[C@@H](CCCCN)C(=O)N[C@@H](Cc4ccc(O)cc4)C(=O)N[C@H](C(=O)N[C@@H](Cc4ccccc4)C(N)=O)C(C)C)NC(=O)[C@H](Cc4c[nH]c5ccccc45)NC(=O)[C@H](CCCCN)NC(=O)[C@H](Cc4c[nH]cn4)NC(=O)[C@H]([C@@H](C)O)NC(=O)[C@H](CCCNC(=N)N)NC(=O)[C@H](CO)NC(=O)[C@H](CSSC[C@H](NC(=O)[C@H](CCCCN)NC(=O)[C@H](CCCNC(=N)N)NC(=O)[C@H](Cc4ccccc4)NC1=O)C(=O)N[C@@H]([C@@H](C)CC)C(=O)N1CCC[C@H]1C(=O)N[C@@H](CC(=O)O)C(=O)N[C@@H](CC(N)=O)C(=O)N[C@@H](CC(=O)O)C(=O)N[C@@H](CCCCN)C(=O)N3)NC(=O)[C@H](C(C)C)NC(=O)[C@H](CC(C)C)NC(=O)[C@H](CC(N)=O)NC(=O)[C@@H]1CCCN1C(=O)[C@H](CCCNC(=N)N)NC2=O` [compound 608] (H-DCLG[Gly(octyl)]FRKCIPDNDKCCRPNLVCSRTHKWCKYVF-NH2; disulfide 2-17, 9-23, 16-30) was run?
**A.** Its IC50 is 21.8 µM.

**Q.** What about the IC50 (hNav1.7; use-dependent block, hNav1.7) of the same molecule?
**A.** Its IC50 is 11.3 µM.

**Q.** And the IC50 (hNav1.5; use-dependent block, hNav1.5)?
**A.** Its IC50 is 20.2 µM.

**Q.** How did the IC50 (hNav1.3; Table 26, use, […]) turn out when `CC[C@H](C)[C@@H]1NC(=O)[C@@H]2CSSC[C@@H]3NC(=O)[C@H](C(C)C)NC(=O)[C@H](CC(C)C)NC(=O)[C@H](CC(N)=O)NC(=O)[C@@H]4CCCN4C(=O)[C@H](CCCNC(=N)N)NC(=O)[C@H](CSSC[C@H](NC(=O)[C@@H](N)CC(=O)O)C(=O)N[C@@H](CC(C)C)C(=O)NCC(=O)N[C@@H](Cc4ccccc4)C(=O)N[C@@H](CCSC)C(=O)N[C@@H](CCCNC(=N)N)C(=O)N[C@@H](CCCCN)C(=O)N2)NC(=O)[C@H](CSSC[C@@H](C(=O)N[C@@H](CCCCN)C(=O)N[C@@H](Cc2ccc(O)cc2)C(=O)N[C@@H](CCSC)C(=O)N[C@@H](Cc2ccccc2)C(N)=O)NC(=O)[C@H](Cc2c[nH]c4ccccc24)NC(=O)[C@H](CCCCN)NC(=O)[C@H](Cc2c[nH]cn2)NC(=O)[C@H]([C@@H](C)O)NC(=O)[C@H](CCCNC(=N)N)NC(=O)[C@H](CO)NC3=O)NC(=O)[C@H](CCCCN)NC(=O)[C@H](CC(=O)O)NC(=O)[C@H](CC(N)=O)NC(=O)[C@H](CC(=O)O)NC(=O)[C@@H]2CCCN2C1=O` [compound 391] (H-DCLGFMRKCIPDNDKCCRPNLVCSRTHKWCKYMF-NH2; disulfide 2-17, 9-23, 16-30) was run?
**A.** The IC50 was 0.08 µM.

**Q.** And the IC50 (hNav1.7; Table 26, use, […])?
**A.** The IC50 was 0.07 µM.

**Q.** And the IC50 (hNav1.5; Table 26, use, […])?
**A.** Its IC50 is 15.1 µM.

**Q.** For `CC[C@H](C)[C@@H]1NC(=O)[C@@H]2CSSC[C@@H]3NC(=O)[C@H](C(C)C)NC(=O)[C@H](CC(C)C)NC(=O)[C@H](CC(N)=O)NC(=O)[C@@H]4CCCN4C(=O)[C@H](CCCNC(=N)N)NC(=O)[C@H](CSSC[C@H](NC(=O)[C@@H](N)CC(=O)O)C(=O)N[C@@H](CC(C)C)C(=O)NCC(=O)N[C@@H](Cc4ccccc4)C(=O)N[C@@H](CCSC)C(=O)N[C@@H](CCCNC(=N)N)C(=O)N[C@@H](CCCCN)C(=O)N2)NC(=O)[C@H](CSSC[C@@H](C(=O)N[C@@H](CCCCN)C(=O)N[C@@H](Cc2ccc(O)cc2)C(=O)N[C@H](C(=O)N[C@@H](Cc2ccccc2)C(N)=O)C(C)C)NC(=O)[C@H](Cc2c[nH]c4ccccc24)NC(=O)[C@H](CCCCN)NC(=O)[C@H](CCCNC(=NC)NC)NC(=O)[C@H]([C@@H](C)O)NC(=O)[C@H](CCCNC(=N)N)NC(=O)[C@H](CO)NC3=O)NC(=O)[C@H](CCCCN)NC(=O)[C@H](CC(=O)O)NC(=O)[C@H](CC(N)=O)NC(=O)[C@H](CC(=O)O)NC(=O)[C@@H]2CCCN2C1=O` [compound 353] (H-DCLGFMRKCIPDNDKCCRPNLVCSRT[Arg(Me2s)]KWCKYVF-NH2; disulfide 2-17, 9-23, 16-30), which IC50 (hNav1.3; Table 23, use, […]) is on record?
**A.** The IC50 was 2.42 µM.

**Q.** And the IC50 (hNav1.7; Table 23, use, […])?
**A.** Its IC50 is 2 µM.

**Q.** And the IC50 (hNav1.5; Table 23, use, […])?
**A.** Its IC50 is 8.32 µM.

**Q.** Which IC50 (hNav1.3; use-dependent protocol, hNav1.3) does the source give for `CC[C@H](C)[C@@H]1NC(=O)[C@@H]2CSSC[C@@H]3NC(=O)[C@H](C(C)C)NC(=O)[C@H](CC(C)C)NC(=O)[C@H](CC(N)=O)NC(=O)[C@@H]4CCCN4C(=O)[C@H](CCCNC(=N)N)NC(=O)[C@H](CSSC[C@H](NC(=O)[C@@H](N)CC(=O)O)C(=O)N[C@@H](CC(C)C)C(=O)NCC(=O)N(C)[C@@H](C(C)C)C(=O)N[C@@H](CC(C)C)C(=O)N[C@@H](CCCNC(=N)N)C(=O)N[C@@H](CCCCN)C(=O)N2)NC(=O)[C@H](CSSC[C@@H](C(=O)N[C@@H](CCCCN)C(=O)N[C@@H](Cc2ccc(O)cc2)C(=O)N[C@H](C(=O)N[C@@H](Cc2ccccc2)C(N)=O)C(C)C)NC(=O)[C@H](Cc2c[nH]c4ccccc24)NC(=O)[C@H](CCCCN)NC(=O)[C@H](Cc2c[nH]cn2)NC(=O)[C@H]([C@@H](C)O)NC(=O)[C@H](CCCNC(=N)N)NC(=O)[C@H](CO)NC3=O)NC(=O)[C@H](CCCCN)NC(=O)[C@H](CC(=O)O)NC(=O)[C@H](CC(N)=O)NC(=O)[C@H](CC(=O)O)NC(=O)[C@@H]2CCCN2C1=O` [compound 672] here?
**A.** Its IC50 is 0.75 µM.

**Q.** And the IC50 (hNav1.7; use-dependent protocol, hNav1.7)?
**A.** Its IC50 is 0.47 µM.

**Q.** And the IC50 (hNav1.5; use-dependent protocol, hNav1.5)?
**A.** The IC50 was greater than 5 µM.

**Q.** With `CC[C@H](C)[C@@H]1NC(=O)[C@@H]2CSSC[C@@H]3NC(=O)[C@H](Cc4ccccc4)N(C)C(=O)[C@H](CC(C)C)NC(=O)[C@H](CC(N)=O)NC(=O)[C@@H]4CCCN4C(=O)[C@H](CCCNC(=N)N)NC(=O)[C@H](CSSC[C@H](NC(=O)[C@@H](N)CC(=O)O)C(=O)N[C@@H](CC(C)C)C(=O)NCC(=O)N[C@@H](Cc4ccccc4)C(=O)N[C@@H](CCSC)C(=O)N[C@@H](CCCNC(=N)N)C(=O)N[C@@H](CCCCN)C(=O)N2)NC(=O)[C@H](CSSC[C@@H](C(=O)N[C@@H](CCCCN)C(=O)N[C@@H](Cc2ccc(O)cc2)C(=O)N[C@H](C(=O)N[C@@H](Cc2ccccc2)C(N)=O)C(C)C)NC(=O)[C@H](Cc2c[nH]c4ccccc24)NC(=O)[C@H](CCCCN)NC(=O)[C@H](Cc2c[nH]cn2)NC(=O)[C@H]([C@@H](C)O)NC(=O)[C@H](CCCNC(=N)N)NC(=O)[C@H](CO)NC3=O)NC(=O)[C@H](CCCCN)NC(=O)[C@H](CC(=O)O)NC(=O)[C@H](CC(N)=O)NC(=O)[C@H](CC(=O)O)NC(=O)[C@@H]2CCCN2C1=O` [compound 328] (H-DCLGFMRKCIPDNDKCCRPNL[NMeF]CSRTHKWCKYVF-NH2; disulfide 2-17, 9-23, 16-30) as the molecule, how does the IC50 (hNav1.3; Use) read?
**A.** Its IC50 is 7.37 µM.

**Q.** What about the IC50 (hNav1.7; Use) of the same molecule?
**A.** Its IC50 is 20.6 µM.

**Q.** What about the IC50 (hNav1.5; Use) of the same molecule?
**A.** The IC50 was 20.4 µM.

**Q.** For `CC[C@H](C)[C@@H]1NC(=O)[C@@H]2CSSC[C@@H]3NC(=O)[C@H](C(C)C)NC(=O)[C@H](CC(C)C)NC(=O)[C@H](CC(N)=O)NC(=O)[C@@H]4CCCN4C(=O)[C@H](CCCNC(=N)N)NC(=O)[C@H](CSSC[C@H](NC(=O)[C@@H](N)CC(=O)O)C(=O)N[C@@H](CC(C)C)C(=O)NCC(=O)N(C)[C@@H](Cc4c[nH]c5ccccc45)C(=O)N[C@@H](CCSC)C(=O)N[C@@H](CCCNC(=N)N)C(=O)N[C@@H](CCCCN)C(=O)N2)NC(=O)[C@H](CSSC[C@@H](C(=O)N[C@@H](CCCCN)C(=O)N[C@@H](Cc2ccc(O)cc2)C(=O)N[C@H](C(=O)N[C@@H](Cc2ccccc2)C(N)=O)C(C)C)NC(=O)[C@H](Cc2c[nH]c4ccccc24)NC(=O)[C@H](CCCCN)NC(=O)[C@H](Cc2c[nH]cn2)NC(=O)[C@H]([C@@H](C)O)NC(=O)[C@H](CCCNC(=N)N)NC(=O)[C@H](CO)NC3=O)NC(=O)[C@H](CCCCN)NC(=O)[C@H](CC(=O)O)NC(=O)[C@H](CC(N)=O)NC(=O)[C@H](CC(=O)O)NC(=O)[C@@H]2CCCN2C1=O` [SEQ ID NO: 274], which IC50 (hNav1.3; [1]) is on record?
**A.** The IC50 was 0.15 µM.

**Q.** What about the IC50 (hNav1.7; [1]) of the same molecule?
**A.** The IC50 was 0.19 µM.

**Q.** And the IC50 (hNav1.5; [1])?
**A.** The IC50 was greater than 5 µM.

Source: patent US9340590B2 (priority 2011, dated 2016)
